Assay results from patent US11325899B2, “Benzofurane and benzothiophene derivatives as PGE2 receptor modulators” (IDORSIA PHARMACEUTICALS LTD, priority 2017, dated 2022).

Experiments:
EP4 receptor = molecular target: T1, EP4 receptor (Homo sapiens, UniProt P35408); assay: hEP4 cAMP assay (BT549 breast cancer cells, HTRF cAMP, PGE2 stimulation); assay type: cell-based; details: antagonistic activity, PGE2 6 nM (EC80)
T1 construct: BT549 breast cancer cells, express high endogenous EP4 levels and very low EP2 levels; host or cells: BT549 breast cancer cells
In short: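 BT549 cells, with endogenous EP4 and very low EP2, were preincubated 45 min at room temperature with compound in HBSS/HEPES/BSA buffer with 2 mM IBMX. They were then stimulated 30 min with 6 nM PGE2 (EC80). cAMP was measured by HTRF competitive immunoassay against a calibrator; IC50 from duplicate dose-response as % of DMSO control.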

PTGER4 (EP4) = molecular target: T2, PTGER4 (EP4) (Homo sapiens, UniProt P35408); assay: hEP4 b-arrestin assay (PathHunter HEK 293 PTGER4 b-arrestin cells); assay type: cell-based; details: antagonistic activity, beta-arrestin assay; read-out: hEP4 b-arr IC50
T2 construct: host or cells: HEK 293 (PathHunter PTGER4 b-arrestin cell line)
In short: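 PathHunter HEK 293 cells expressing ProLink-tagged human EP4 and EA-β-arrestin 2, seeded 24 h before. Compounds (10 μM–2 nM or 1 μM–0.2 nM) preincubated 15 min at 37 °C, then 20 nM PGE2 (EC80) for 120 min at 37 °C. β-gal complementation luminescence read; IC50 from duplicate dose-response curves versus DMSO control.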

T2 sequence (P35408 whole entry): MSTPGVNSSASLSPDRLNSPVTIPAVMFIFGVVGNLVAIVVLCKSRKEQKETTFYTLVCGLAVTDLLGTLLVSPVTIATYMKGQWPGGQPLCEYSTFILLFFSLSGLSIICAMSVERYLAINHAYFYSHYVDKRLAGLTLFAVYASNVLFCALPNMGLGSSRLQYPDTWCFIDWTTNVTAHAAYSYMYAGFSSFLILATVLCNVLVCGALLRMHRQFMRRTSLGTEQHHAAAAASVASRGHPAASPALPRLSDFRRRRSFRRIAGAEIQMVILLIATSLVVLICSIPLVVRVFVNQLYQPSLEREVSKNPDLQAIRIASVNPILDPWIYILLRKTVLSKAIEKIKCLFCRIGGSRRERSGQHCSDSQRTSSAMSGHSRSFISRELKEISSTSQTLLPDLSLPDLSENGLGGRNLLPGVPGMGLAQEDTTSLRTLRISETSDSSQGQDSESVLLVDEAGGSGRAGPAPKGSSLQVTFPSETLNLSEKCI
T1 sequence (P35408 whole entry): as above

IC50 (EP4 receptor) [nM] | IC50 (PTGER4 (EP4)) [nM] | SMILES
60 | 208 | Cc1sc2c(C)cc(F)cc2c1CCNc1cc(-c2ccc(C(=O)O)c(OC(F)F)c2)ncn1 [Example 115, 2-Difluoromethoxy-4-{6-[2-(5-fluoro-2,7-dimethyl-benzo[b]thiophen-3-yl)-ethylamino]-pyrimidin-4-yl}-benzoic acid]
29 | 34 | CCCc1cc(-c2cc(NCCc3c(C#N)sc4c(C)cc(F)cc34)ncn2)ccc1C(=O)O [Example 167, 4-{6-[2-(2-Cyano-5-fluoro-7-methyl-benzo[b]thiophen-3-yl)-ethylamino]-pyrimidin-4-yl}-2-propyl-benzoic acid]
860 | 1040 | Cc1sc2c(C)cc(F)cc2c1CCNc1cc(-c2ccc(C(=O)O)c(O)c2)ncn1 [Example 10, 4-{6-[2-(5-Fluoro-2,7-dimethyl-benzo[b]thiophen-3-yl)-ethylamino]-pyrimidin-4-yl}-2-hydroxy-benzoic acid]
30 | 161 | CCOc1cc(-c2cc(NCCc3c(C#N)sc4c(C)cc(F)cc34)ncn2)ccc1CC(=O)O [Example 104, (4-{6-[2-(2-Cyano-5-fluoro-7-methyl-benzo[b]thiophen-3-yl)-ethylamino]-pyrimidin-4-yl}-2-ethoxy-phenyl)-acetic acid]

Second part, the molecule before the results:

SMILES | IC50 (EP4 receptor) [nM] | IC50 (PTGER4 (EP4)) [nM]
COc1cc(F)c(F)c2c(CCNc3cc(-c4ccc(C(=O)O)c(OC5CCC5)c4)ncn3)c(C)oc12 [Example 141, 2-Cyclobutoxy-4-{6-[2-(4,5-difluoro-7-methoxy-2-methyl-benzofuran-3-yl)-ethylamino]-pyrimidin-4-yl}-benzoic acid] | 582 | 340
CCCCOc1cc(-c2cc(NCCc3c(C)sc4c(C)cc(F)cc34)ncn2)ccc1C(=O)O [Example 127, 2-Butoxy-4-{6-[2-(5-fluoro-2,7-dimethyl-benzo[b]thiophen-3-yl)-ethylamino]-pyrimidin-4-yl}-benzoic acid] | 873 | 225
CCCOc1cc(-c2cc(NCCc3c(C)sc4c(C)cc(F)cc34)ncn2)ccc1CC(=O)O [Example 190, (4-{6-[2-(5-Fluoro-2,7-dimethyl-benzo[b]thiophen-3-yl)-ethylamino]-pyrimidin-4-yl}-2-propoxy-phenyl)-acetic acid] | 219 | 200
Cc1sc2c(C)cccc2c1CCNc1cc(-c2ccc(C(=O)O)c(SCC(C)C)c2)ncn1 [Example 166, 4-{6-[2-(2,7-Dimethyl-benzo[b]thiophen-3-yl)-ethylamino]-pyrimidin-4-yl}-2-isobutylsulfanyl-benzoic acid] | 1130 | 254
COc1cc(Cl)cc2c(CCNc3cc(-c4ccc(C(=O)O)c(OC5CCC5)c4)ncn3)c(C)oc12 [Example 133, 4-{6-[2-(5-Chloro-7-methoxy-2-methyl-benzofuran-3-yl)-ethylamino]-pyrimidin-4-yl}-2-cyclobutoxy-benzoic acid] | 170 | 74
CCc1nc(-c2cc(NCCc3c(C)sc4c(C)cc(F)cc34)ncn2)sc1C(=O)O [Example 161, 4-Ethyl-2-{6-[2-(5-fluoro-2,7-dimethyl-benzo[b]thiophen-3-yl)-ethylamino]-pyrimidin-4-yl}-thiazole-5-carboxylic acid] | 363 | 256
